From patent US12569473B2, “Methods to treat respiratory infection utilizing castanospermine analogs” (60 Degrees Pharmaceuticals, Inc., priority 2022, dated 2026)
Structures can show the parent of a compound that is named as a salt. Where two headings read alike, the source gives them in different places.

Experiments:
RSV strain A2 [1] = assay: CPE inhibition assay, visual examination, RSV; type: cell-based; settings: for EC50: human respiratory syncytial virus, unit inferred
Method: (§1) The efficacy of celgosivir and castanospermine against RSV and human rhinovirus-14 was assessed in vitro. For RSV studies, embryonic African green monkey kidney cells (MA-104) were grown in minimal essential medium (MEM) supplemented with 0.1% NaHCO3 and 10% fetal bovine serum. When performing antiviral assays, serum was reduced to 2% and […] gentamicin was added to the medium. RSV strain A2 was used for the studies. For rhinovirus studies, the HeLa Ohio cell line was used in place of MA-104 cells.
(§2) CPE inhibition assays with visual quantification of antiviral activity and cytotoxicity were performed as described by Sidwell and Huffman (1971) with slight modifications. Sidwell, R. W. and Huffman, J. H. (1971) Use of disposable micro-tissue culture plates for antiviral and interferon induction studies. Appl. Microbiol. 22, […]. […] All compounds were assayed for virus inhibition in quadruplicate and for cytotoxicity in duplicate. For rhinovirus studies, Pirodavir was applied at a concentration of 0.001-1 μg/ml as the positive control compound. For RSV studies, the positive control compound was Ribavirin applied at a concentration of 0.5-500 μg/ml. For each compound, two wells were set aside as uninfected, untreated cell controls per test and four wells per test received virus only and represented controls for virus replication. […] For all CPE-based assays, the 50% effective concentration (EC50) was calculated by regression analysis using the means of the CPE ratings at each concentration of compound. Morphological changes due to compound cytotoxicity were graded on a scale of 0-5; grade 5 was defined as 100% cytotoxicity. The 50% cytotoxic dose (IC50) was calculated by regression analysis. A selective index (S.I.) was calculated for each compound (SI.=(IC50)/(EC50)).

[2] = mice; 50 mg/kg BID dose; cited from earlier work
[3] = cited from earlier work
human rhinovirus-14 [4] = assay: CPE inhibition assay, visual examination, human rhinovirus-14; type: cell-based; settings: for efficacy against human rhinovirus-14: at the concentrations tested (0.3-300 microM); for EC50: visual examination, HeLa Ohio cells, unit inferred
Method: as §1, §2

human rhinovirus-14 [5] = assay: Neutral red assay of CPE inhibition, human rhinovirus-14; type: cell-based; settings: HeLa Ohio cells, unit inferred
Method: as §1
(§3) CPE inhibition assays with visual quantification of antiviral activity and cytotoxicity were performed as described by Sidwell and Huffman (1971) with slight modifications. Sidwell, R. W. and Huffman, J. H. (1971) Use of disposable micro-tissue culture plates for antiviral and interferon induction studies. Appl. Microbiol. 22, […]. […] All compounds were assayed for virus inhibition in quadruplicate and for cytotoxicity in duplicate. For rhinovirus studies, Pirodavir was applied at a concentration of 0.001-1 μg/ml as the positive control compound. For RSV studies, the positive control compound was Ribavirin applied at a concentration of 0.5-500 μg/ml. For each compound, two wells were set aside as uninfected, untreated cell controls per test and four wells per test received virus only and represented controls for virus replication. […] A selective index (S.I.) was calculated for each compound (SI.=(IC50)/(EC50)).
(§4) Neutral red assay of CPE inhibition and cytotoxicity was performed by a modified method as described by Cavenaugh et al. (1990). […] Briefly, medium was removed from each well of a plate scored for CPE from the visual CPE inhibition assay, 0.2 ml of neutral red (0.034% in PSS) was added to each of the wells of that plate and the plate incubated for 2 h at 37° C. in the dark. […] Absorbances at 540 and 450 nm were read with a microplate reader (Bio-Tek EL 1309; Bio-Tek Instruments). […] Absorbance values were expressed as percentages of untreated controls and EC50 and IC50 values were calculated by regression analysis

[6] = Cytotoxicity, visual examination, HeLa Ohio cells; type: cell-based; settings: human, unit inferred
Method: as §1, §2

[7] = Cytotoxicity, neutral red assay, HeLa Ohio cells; type: cell-based; settings: human, unit inferred
Method: as §1, §3, §4

[8] = Cytotoxicity, visual examination, MA-104 cells; type: cell-based, African green monkey; settings: African green monkey
Method: as §1, §2

[9] = system: embryonic African green monkey kidney cells (MA-104); assay: Cytotoxicity, visual examination, MA-104 cells; type: cell-based
Method: as §1, §2

[10] = Cytotoxicity, neutral red assay, MA-104 cells; type: cell-based; settings: African green monkey, MA-104 cells (embryonic African green monkey kidney), unit inferred
Method: as §1, §3, §4

RSV strain A2 [11] = assay: Neutral red assay of CPE inhibition, RSV; type: cell-based; settings: human respiratory syncytial virus, MA104, MA-104 cells, unit inferred
Method: as §1, §3, §4

[12] = literature (Sorbera et al); cited from earlier work
[13] = Pharmacokinetic simulations using CELADEN study parameters; design: species or system human; settings: linear extrapolation
Method: It is known that a steady state minimum castanospermine concentration of 400 nanograms/ml is associated with a 50 mg/kg BID dose in mice and that the antiviral effect of celgosivir in vivo seems to be correlated with the minimum steady state concentration of castanospermine (Watanabe et al). […] International Publication No. WO 2014/143907 discloses pharmacokinetic parameters for castanospermine for the CELADEN study. […] Extrapolating linearly, therefore, the minimum protective dose (achieving 400 nanograms/ml steady state minimum) is approximately 40 mg every 6 h, 75 mg every 8 h and 225 mg every 12 h. Further, WO 2014/143907 discloses that the CELADEN study regimen produce a steady state maximum castanospermine concentration of 5100 nanograms/ml. […] The FDA has published generic scaling factors to adjust mg/kg dosing in animals to mg/kg dosing in humans. Generically for mice, that scaling factor is 12. Therefore, 50 mg/kg BID is equivalent to a dose of 4.2 mg/kg BID in humans, which for a 60 kg human is equivalent to 250 mg. The same dose administered three or four times daily is equivalent to 167 mg and 125 mg and 2.8 and 2.1 mg/kg respectively. In a 60 kg human, the maximum single dose is 6.7 mg/kg, and the maximum daily dose is 10 mg/kg.

RSV [strain A/A2] [14] = assay: Pulmonary histopathology in RSV-infected cotton rats; type: in vivo, Cotton rats [Sigmodon hispidus]; settings: for lung histopathology scores (RSV-induced inflammation): Day 5 post infection, celgosivir 25, 50 or 100 mg/kg BID from one day before or after infection, synagis 2.5 mg/kg i.m. once per day, vs vehicle
Method: (§5) Cotton rats [Sigmodon hispidus, 2 male & 3 female, 6-8 weeks old] provided with standard rodent chow and water ad lib, were infected intranasally with RSV [strain A/A2, 10^5 pfu] on Day 0. Animals received celgosivir [25, 50 or 100 mg/kg BID for total daily doses of 50, 100 or 200 mg/kg] daily beginning one day before or after infection and were sacrificed on Day 5-post-infection for histopathology, qPCR, and viral load assessment. Control groups included a [i] positive control Synagis [2.5 mg/kg, i.m, once per day from the first day post-infection], [ii] vehicle control in which vehicle was administered twice per day beginning one day prior to RSV infection, [iii] a vehicle control group that were mock-infected with PBS for which treatment was initiated beginning one day prior to infection, and [iv] an untreated group mock infected with PBS that received no treatment. Animals were weighed on Day −1 and Day 5, and plasma was obtained by retro-orbital bleed on the same days.
(§6) The RSV strain for inoculation [A/A2 (RSV A/A2) (ATCC, Manassas, VA)] was propagated in HEp-2 cells after serial plaque-purification to reduce defective-interfering particles. A pool of virus designated containing approximately 3.0×10^8 pfu/mL in sucrose stabilizing media was used in the experiment. This stock of virus was stored at −80° C. and was previously characterized in vivo in the cotton rat model and validated for upper and lower respiratory tract replication.
Pulmonary Histopathology: Lungs were removed and inflated with 10% neutral buffered formalin to their normal volume, then fixed [using the same solution]. After fixation, lungs were embedded in paraffin, sectioned, and stained with H&E. Four parameters of pulmonary inflammation were evaluated: peribronchiolitis (inflammatory cell infiltration around the bronchioles), perivasculitis (inflammatory cell infiltration around the small blood vessels), interstitial pneumonia (inflammatory cell infiltration and thickening of alveolar walls), and alveolitis (cells within the alveolar spaces). Slides were blindly scored on a 0-4 severity scale. The scores are subsequently converted to a 0-100% normalized scale.
Statistics: Group means for each parameter were evaluated by one-way ANOVA, then individual group means were compared [t-test, with multiple comparison correction] to the RSV-infected, vehicle-treated control group. P<0.05 was considered statistically significant.

RSV [strain A/A2] [15] = assay: Nose and lung viral titers in RSV-infected cotton rats; type: in vivo, Cotton rats [Sigmodon hispidus]; settings: Day 5 post infection, celgosivir 25, 50 or 100 mg/kg BID from one day before or after infection, synagis 2.5 mg/kg i.m. once per day, vs vehicle
Method: as §5, §6
Viral Titers: Nose and lung homogenates were centrifuged and diluted in EMEM. Confluent HEp-2 monolayers were infected in duplicate with diluted homogenates in 24-well plates. Following one hour incubation at 37° C. […] Plaques were counted and virus titer determined as geometric mean plaque-forming units per gram of tissue±standard error for all animals in a group at a given time.
Statistics: Group means for each parameter were evaluated by one-way ANOVA, then individual group means were compared [t-test, with multiple comparison correction] to the RSV-infected, vehicle-treated control group. […]

[16] = MA104, visual examination, MA-104 cells, compounds tested at 0.3, 3, 30 and 300 microM
[17] = compounds tested at 0.3, 3, 30 and 300 microM
[18] = in theory, CELADEN study, confirming literature
[19] = positive control applied at 0.001-1 μg/ml
[20] = positive control applied at 0.5-500 μg/ml

For `O[C@H]1[C@H](O)[C@@H](O)CN2CC[C@H](O)[C@H]12` [Castanospermine], the EC50 (RSV strain A2 [1]; [16]) is listed as over 300 µM, the “steady state minimum castanospermine concentration” value [2] is listed as 400 nanograms/ml and the “steady state maximum castanospermine concentration” value ([3]; CELADEN study regimen) is listed as 5100 nanograms/ml. For the same molecule, the “efficacy against human rhinovirus-14” value (human rhinovirus-14 [4]) was “Neither celgosivir nor castanospermine were determined to be efficacious”, the EC50 (human rhinovirus-14 [4]; [17]) was over 300 µM and the EC50 (human rhinovirus-14 [5]; [17]) was over 300 µM. The CC50 at 6 days [6, 17] was over 300 µM, the CC50 at 6 days [7, 17] was over 300 µM and the CC50 at 6 days ([8]; CC50) was over 300 µM. The “safety in vitro (CC50 above the highest concentration tested)” value [9] was “safe at all concentrations tested”, the CC50 at 6 days [10, 17] was over 300 µM and the EC50 (RSV strain A2 [11]; [17]) was over 300 µM.
In the case of `CCCC(=O)O[C@H]1CN2CC[C@H](O)[C@@H]2[C@@H](O)[C@@H]1O` [Celgosivir HCL], the “pharmacokinetics, dose linearity” value [12] is listed as “linear with dose over the tolerated dose range”, the EC50 (RSV strain A2 [1]; [16]) is listed as 37 µM and the EC50 (RSV strain A2 [1]; against RSV, text summary over visual and neutral red assays) is listed as 34 to 37 µM. The “efficacy against RSV infection” value (RSV strain A2 [1]; in vitro) was “efficacious”, the adverse event profile ([3]; CELADEN study regimen) was “higher incidence of GI effects, but not increased severity” and the “maximum daily dose as a total dose” value [3, 18] was at most 600 mg. For the same molecule, the “maximum dose as a single dose” value [3, 18] was at most 400 mg, the “minimum protective dose (achieving 400 nanograms/ml steady state minimum)” value (shortened to “minimum protective dose”) ([13]; every 6 h) was “approximately 40 mg” and the “minimum protective dose” value ([13]; every 8 h) was about 75 mg. The “minimum protective dose” value ([13]; every 12 h) was about 225 mg, the “efficacy against human rhinovirus-14” value (human rhinovirus-14 [4]) was “Neither celgosivir nor castanospermine were determined to be efficacious” and the EC50 (human rhinovirus-14 [4]; [17]) was over 300 µM. The EC50 (human rhinovirus-14 [5]; [17]) was over 300 µM, the CC50 at 6 days [6, 17] was over 300 µM and the CC50 at 6 days [7, 17] was over 300 µM. The “lung histopathology scores (RSV-induced inflammation)” value (“lung histopathology scores” for short) (RSV [strain A/A2] [14]; listed as Celgosivir) was “reduced inflammation at all doses on three of four histopathology parameters”, the “lung histopathology scores” value (RSV [strain A/A2] [14]; listed as celgosivir) was “reduced for at least one domain for all doses” and the “impact of timing of administration on degree of protection against inflammation” value (RSV [strain A/A2] [14]; dosing begun one day prior to vs one day after infection (FIG. 1)) was “minimal impact”. For the same molecule, the CC50 at 6 days ([8]; MA-104 cells (embryonic African green monkey kidney), RSV studies, text summary over visual and neutral red assays, unit inferred, read-out: CC50) was at least 300 µM, the CC50 at 6 days ([8]; MA-104 cells (embryonic African green monkey kidney), visual examination, MA-104 cells, compounds tested at 0.3, 3, 30 and 300 microM, unit inferred, read-out: CC50) was over 300 µM and the “safety in vitro (CC50 above the highest concentration tested)” value ([9]; all concentrations tested (0.3-300 microM), text summary of the cytotoxicity assays) was “safe at all concentrations tested”. The CC50 at 6 days [10, 17] was over 300 µM, the “nasal and lung viral titer” value (RSV [strain A/A2] [15]; listed as Celgosivir) was “no effect on viral titer in either the nose or the lung” and the “nasal and lung viral titer” value (RSV [strain A/A2] [15]; listed as celgosivir) was “did not”. It also gave an EC50 (RSV strain A2 [11]; [17]) of 34 µM.
In the case of `CCOC(=O)c1ccc(OCCC2CCN(c3ccc(C)nn3)CC2)cc1` [Pirodavir, reference compound], the EC50 (human rhinovirus-14 [4]; [19]) is reported as 0.032 µg/mL, the EC50 (human rhinovirus-14 [5]; [19]) is reported as 0.031 µg/mL and the CC50 at 6 days [6, 19] is reported as over 1 µg/mL. It also gave a CC50 at 6 days [7, 19] of over 1 µg/mL.
`NC(=O)c1ncn([C@@H]2O[C@H](CO)[C@@H](O)[C@H]2O)n1` [Ribavirin, reference compound] gave an EC50 (RSV strain A2 [1]; MA104, visual examination, MA-104 cells, positive control applied at 0.5-500 μg/ml) of 4 µg/mL, a CC50 at 6 days ([8]; MA-104 cells (embryonic African green monkey kidney), visual examination, MA-104 cells, positive control applied at 0.5-500 μg/ml, unit inferred, read-out: CC50) of 340 µg/mL and a CC50 at 6 days [10, 20] of 62 µg/mL. The EC50 (RSV strain A2 [11]; [20]) was 2.8 µg/mL.
In the case of “Synagis: positive control in cotton rat RSV study, 2.5 mg/kg i.m. once per day”, the “lung histopathology scores” value (RSV [strain A/A2] [14]) is reported as “statistically significant reductions across all four histopathology domains” and the “nasal and lung viral titer” value (RSV [strain A/A2] [15]) is reported as “decrease viral titer”.
